The results in this text go back to patent publication US20110117026A1, “METHODS AND COMPOSITIONS FOR THE DELIVERY OF BIOACTIVE COMPOUNDS” (priority 2008, published 2011).

Broadly, the IC50 is the concentration at which inhibition is half-maximal.

Non-standard residues stand in square brackets, D forms with d. Residues, ends and D or L forms follow the SMILES beside them. No end group written: not given here. pY = N[C@@H](Cc1ccc(OP(=O)(O)O)cc1)C(=O)O

Assay [1] concerns the target T1, STAT5b phosphorylation by EGFR (Homo sapiens, UniProt P51692).
T1 construct: In a cell-free system containing the lysate of H460 cells treated with EGF; endogenous in cells; host or cells: H460 cell lysate (cells treated with EGF)
T1 sequence (P51692 1-787): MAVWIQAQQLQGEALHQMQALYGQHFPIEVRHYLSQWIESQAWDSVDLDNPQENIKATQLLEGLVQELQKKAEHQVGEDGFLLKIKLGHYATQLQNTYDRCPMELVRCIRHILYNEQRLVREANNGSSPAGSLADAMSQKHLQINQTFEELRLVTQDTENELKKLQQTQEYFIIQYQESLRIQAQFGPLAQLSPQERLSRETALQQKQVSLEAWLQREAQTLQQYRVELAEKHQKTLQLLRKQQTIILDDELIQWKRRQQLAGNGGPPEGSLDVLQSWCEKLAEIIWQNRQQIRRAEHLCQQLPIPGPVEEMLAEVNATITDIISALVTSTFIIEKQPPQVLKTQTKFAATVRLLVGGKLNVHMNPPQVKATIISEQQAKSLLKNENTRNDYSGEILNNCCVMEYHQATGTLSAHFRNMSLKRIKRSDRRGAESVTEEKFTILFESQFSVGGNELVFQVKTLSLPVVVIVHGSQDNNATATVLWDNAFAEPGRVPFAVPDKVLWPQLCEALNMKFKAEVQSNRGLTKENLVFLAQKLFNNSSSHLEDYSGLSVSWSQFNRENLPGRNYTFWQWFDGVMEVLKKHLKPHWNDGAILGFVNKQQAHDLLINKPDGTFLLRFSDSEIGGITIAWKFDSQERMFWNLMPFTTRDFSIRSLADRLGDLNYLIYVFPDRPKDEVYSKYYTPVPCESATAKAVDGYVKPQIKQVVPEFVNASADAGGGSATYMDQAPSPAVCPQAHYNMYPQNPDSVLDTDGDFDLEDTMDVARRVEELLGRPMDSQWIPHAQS
In words: Cell-free inhibition of STAT5b phosphorylation in H460 cell lysate (Western blot). Type of assay: biochemical. Here is the method: FIGS. 20A and 20B show the inhibition of STAT5b phosphorylation by the EV peptide (SEQ ID NO: 3) in a tumor cell lysate. Increasing amounts of EV peptide was added to the assay mixture containing H460 cell lysate. The degree of STAT5b phosphorylation was detected by Western blot (FIG. 20A) using a phosphorylated STAT5b specific monoclonal antibody. The data was analyzed by Image J software to obtain the IC50 (FIG. 20B).
Studies were initiated by selecting a highly anionic peptide that can block an important intracellular signaling event. The phosphorylation and activation of the signal transducer and activator of transcription 5b (STAT5b) by the epidermal growth factor receptor (EGFR) tyrosine kinase was chosen as the targeted signaling event. STAT proteins are cytoplasmic proteins that function as secondary messengers and transcription factors. The STAT proteins have a phosphotyrosine binding domain of src-homology 2 (SH2). The potential of the SH2 domain to interact with a number of signaling proteins allow the STATs to interfere with multiple cell signaling pathways (Mohamad and Mohammad (2006) JK-Practitioner 13(4):215-221). STAT activation has been implicated in human cancer cells, including the activation of upstream receptor tyrosine kinases, such as the EGFR, as well as nonreceptor kinases. […]
For orientation: A western blot detects proteins with antibodies after separation by electrophoresis.

In assay [2] the test system is H460 cells. In words: Uptake of Alexa488 EV peptide by H460 cells. It counts as cell-based, human. Conditions: Alexa488-labeled EV peptide, 4 h. As for the experimental part: After treating H460 cells for four hours with an Alexa488 conjugated EV peptide formulated in LPH, PEG-LPH, or PEG-AA-LPH, cells were washed, treated with Triton X-100, and the fluorescence of the cell extract was determined with a fluorometer.
The uptake of the peptide by H460 cells was first studied in vitro. The EV peptide was fluorescently labeled with Alexa488 at the N-terminal α-NH2 group, purified by gel filtration, and formulated in the nanoparticles. […] Free EV peptide was not taken up by H460 cells at all.

Assay [3] deals with H460 cells. In words: Inhibition of H460 cell growth. As to conditions: EV peptide 5 μM. It counts as cell-based, human. As for the experimental part:
H460 cells were treated with the EV peptide (5 μM) formulated in LPH-PEG-AA, LPH-PEG, or as a free peptide.
(§1) The effect of the delivered EV peptide on the growth of H460 cells was then investigated.

Assay [4] concerns H460 cells. In words: Apoptosis of H460 cells by flow cytometry (annexin V, propidium iodide). As to conditions: 48 hours after treatment. Type of assay: cell-based, human. Here is the method:
Cells were stained with propidium iodide (PI) and Annexin V-FITC at 48 hours after treatment with a PEGylated LPH with AA or without AA.
as §1
A general note: Flow cytometry measures light scatter and fluorescence of single cells or particles in a stream.

Assay [5] concerns the target T2, recombinant caspase 3 (Homo sapiens, UniProt P42574).
T2 sequence (P42574 29-175 limits assumed): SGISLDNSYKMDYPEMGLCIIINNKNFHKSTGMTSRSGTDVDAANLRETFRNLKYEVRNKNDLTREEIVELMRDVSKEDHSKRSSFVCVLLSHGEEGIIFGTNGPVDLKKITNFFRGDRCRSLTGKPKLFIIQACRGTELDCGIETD
T2 sequence (P42574 176-277 limits assumed): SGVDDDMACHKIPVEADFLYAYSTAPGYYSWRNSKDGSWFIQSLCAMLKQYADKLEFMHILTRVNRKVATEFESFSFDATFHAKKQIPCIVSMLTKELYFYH
Put plainly: Cleavage of imaging peptide by caspase 3 (Cy5.5/Cy7 FRET, nanofluorometer). It counts as biochemical.
Experimental: The fluorescence emission profiles of untreated peptide (FIG. 27A), peptide treated with 60 units of caspase-3 for 2 hours (FIG. 27B), peptide treated with 0.1 mg BSA (FIG. 27C), and peptide treated with 60 units caspase-3 that was pre-incubated with 10 μM caspase-3 inhibitor for one hour (FIG. 27D) were measured with a nanofluorometer.
The fluorescence spectrum of the peptide was recorded with a nanofluorometer which only requires a 2 μL sample volume.

In assay [6] the target is T3, STAT5b (Homo sapiens, UniProt P51692).
T3 construct: endogenous in cells; host or cells: H460 cells
T3 sequence (P51692 1-787): T1 sequence (P51692 1-787)
Put plainly: STAT5b phosphorylation in intact H460 cells (ELISA). It counts as cell-based. Conditions: 3.4 μM peptide, 24 h. As for the experimental part: FIG. 22 provides a graph depicting the inhibition of STAT5b phosphorylation by the EV peptide. At 24 hours after treating H460 cells with LPH, LPH-PEG or LPH-PEG-AA comprising the EV (SEQ ID NO: 3) or EE (SEQ ID NO: 4) peptide or the free peptide at 3.4 μM, the reduction of phosphorylated Stat5b was assayed with an ELISA.
Next, the pharmacodynamics of the EV peptide was studied in vitro.
On the technique in general: ELISA stands for enzyme-linked immunosorbent assay.

Turning to `CC(C)C[C@H](NC(=O)[C@H](CCC(=O)O)NC(=O)[C@H](Cc1ccccc1)NC(=O)[C@H](Cc1ccc(OP(=O)(O)O)cc1)NC(=O)[C@H](CCC(=O)O)NC(=O)[C@H](CCC(=O)O)NC(=O)[C@H](CCC(=O)O)NC(=O)[C@@H](N)CCC(=O)O)C(=O)N[C@H](C(=O)O)C(C)C` [EV peptide, EEEE(pY)FELV] (H-EEEE[pY]FELV-OH; C-terminus assumed), the IC50 in assay [1] worked out at 2500 nM. In addition, the “uptake by H460 cells” value in assay [2] is “not taken up”. The “effect on growth of H460 cells” value in assay [3] was “no effect”. In addition, the “apoptosis, in words” value in assay [4] is reported as “without any effect”.

As to “Ac-KDEVDCDEVDKDEVDC (also: Cy5.5 on Cys, Cy7 on Lys) [imaging peptide, caspase 3 FRET reporter]”, the “ratio of Cy5.5/Cy7” value in assay [5] (after incubation with recombinant caspase 3 (60 units, 2 hours)) turned out to be 2.70; in assay [5] (intact (untreated) peptide) it was 1.74.

Consider “E(pY)ELFEEVE (E[pY]ELFEEVE) [EE peptide, reference compound]”, for which the “effect on STAT5b phosphorylation, in words” value in assay [6] is “did not show any significant effect”.
